The test has as its target T1, Angiotensin II Receptor (Bos taurus, UniProt P25104).
T1 construct: The brownish tissue forming the adrenal cortex is scraped off and finely minced with scissors before homogenization; from tissue; host or cells: beef adrenal cortex, microsomal membranes (100,000 x g pellet)
T1 sequence (P25104 1-359): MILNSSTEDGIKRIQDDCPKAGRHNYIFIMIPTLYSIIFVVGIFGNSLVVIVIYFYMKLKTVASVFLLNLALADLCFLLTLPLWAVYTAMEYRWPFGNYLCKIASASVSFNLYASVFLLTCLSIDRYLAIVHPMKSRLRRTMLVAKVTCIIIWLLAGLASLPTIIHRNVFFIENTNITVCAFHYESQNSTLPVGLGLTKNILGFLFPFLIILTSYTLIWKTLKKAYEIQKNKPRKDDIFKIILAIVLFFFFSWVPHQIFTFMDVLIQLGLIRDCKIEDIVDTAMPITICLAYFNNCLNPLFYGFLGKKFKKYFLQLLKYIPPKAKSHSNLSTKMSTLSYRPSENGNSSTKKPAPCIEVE
The test is described as follows: Receptor binding assay: binding of [^125 I](Sar^1,Ile^8)AngII. The following applies: beef adrenal cortex membranes, 60 min, room temperature. From the text: Beef adrenals are obtained from a local slaughter house (Maxwell-Cohen). [^125 I](Sar^1,Ile^8)AngII, S. A. 2200 Ci/mmole, is purchased from Dupont (NEN®, Boston, Mass.). All unlabeled AngII analogs, Dimethylsulfoxide (DMSO), nucleotides, bovine serum albumin (BSA) are purchased from Sigma Chemical Co., St. Louis, Mo. U.S.A.
Approximately sixteen (16) to twenty (20) beef adrenal glands are processed as follows: fresh adrenal glands received on crushed ice are cleaned of fatty tissues and the tough membranes encapsulating the glands are removed and discarded. […] A 100 ul aliquot is withdrawn and the protein content of the preparation is determined by the Lowry's method (Lowry, O. H., Rosebrough, N. P., Farr, A. L. and Randall, R. J., Protein measurement with Polin phenol reagent. J. Biol. Chem., […], 265-275, 1951). […]
The binding of [^125 I](Sar^1 Ile^8)AngII to microsomal membranes is initiated by the addition of reconstituted membranes (1:10 vols.) in freshly made 50.0 mM Tris.HCl buffer, pH 7.4 containing 0.25% heat inactivated bovine serum albumin (BSA): 80 ul membrane protein (10 to 20 ug/assay) to wells already containing 100 ul of incubation buffer (as described above) and 20 ul [^125 I](Sar^1 Ile^8)AngII (Specific Activity, 2200 Ci/mmole). Non-specific binding is measured in the presence of 1.0 uM unlabeled (Sar^1,Ile^8)AngII, added in 20 ul volume. […]

Molecule `CCCCc1nc2ccc(C(C)(O)CC3CCCN3)cc2c(=O)n1Cc1ccc(-c2ccccc2-c2nnn[nH]2)cc1` (stereo not drawn) [Example 79, CIS-2-Butyl-6-[1-hydroxy-1-methyl-2-(2-pyrrolidinyl)ethyl]-3-[[21-(1H-tetrazol-5-yl)[1,1'-biphenyl]-4-yl]methyl]-4(3H)-quinazolinone] yielded an IC50 of 3.5 nM.

What is called IC50 is the concentration that inhibits the measured activity by half. The low end stands for inhibition by little substance, the high end for a need for much substance.

The record behind these values is US5292734A, “Angiotensin II receptor blocking 2,3,6 substituted quinazolinones” (American Cyanamid Company, priority 1993, dated 1994).
